Measurements published in patent US7501410B2, “Methods of inhibiting BTK and SYK protein kinases” (Roche Palo Alto LLC, priority 2006, dated 2009).

Columns and labels:
[1] = target: T1, Bruton's Tyrosine Kinase (Btk) (Homo sapiens, UniProt Q06187); experiment: Determination of IC50 of Bruton's Tyrosine Kinase (Btk) inhibition, 33P filtration assay; assay type: biochemical; conditions: His-tagged full-length Btk, 100 μM ATP
T1 construct: 5-10 nM Btk enzyme (His-tagged, full-length); His tag
Text: Determination of IC50 of Bruton's Tyrosine Kinase (Btk) Inhibition
The assay is a capture of radioactive ^33P phosphorylated product through filtration. The interactions of Btk, biotinylated SH2 peptide substrate (Src homology), and ATP lead to phosphorylation of the peptide substrate. Biotinylated product is bound streptavidin sepharose beads. All bound, radiolabeled products are detected by scintillation counter.
Plates assayed are 96-well polypropylene (Greiner) and 96-well 1.2 μm hydrophilic PVDF filter plates (Millipore). Concentrations reported here are final assay concentrations: 10-100 μM compounds in DMSO (Burdick and Jackson), 5-10 nM Btk enzyme (His-tagged, full-length), 30 μM peptide substrate (Biotin-Aca-[…]-NH2), 100 μM ATP (Sigma), 8 mM imidazole (Sigma, pH 7.2), 8 mM glycerol-2-phosphate (Sigma), 200 μM EGTA (Roche Diagnostics), 1 mM MnCl2 (Sigma), 20 mM MgCl2 (Sigma), 0.1 mg/ml BSA (Sigma), 2 mM DTT (Sigma), 1 μCi ^33P ATP (Amersham), 20% streptavidin sepharose beads (Amersham), 50 mM EDTA (Gibco), 2 M NaCl (Gibco), 2 M NaCl w/1% phosphoric acid (Gibco), microscint-20 (Perkin Elmer).
IC50 determinations are calculated from 10 data points per compound utilizing data produced from a standard 96-well plate assay template. One control compound and seven unknown inhibitors were tested on each plate and each plate was run twice. Typically, compounds were diluted in half-log starting at 100 μM and ending at 3 nM. The control compound was staurosporine. Background was counted in the absence of peptide substrate. Total activity was determined in the presence of peptide substrate. The following protocol was used to determine BTK inhibition.
1) Sample preparation: The test compounds were diluted at half-log increments in assay buffer (imidazole, glycerol-2-phosphate, EGTA, MnCl2, MgCl2, BSA).
2) Bead preparation • a.) rinse beads by centrifuging at 500 g • b.) reconstitute the beads with PBS and EDTA to produce a 20% bead slurry
3) Pre-incubate reaction mix without substrate (assay buffer, DTT, ATP, ^33P ATP) and mix with substrate (assay buffer, DTT, ATP, ^33P ATP, peptide substrate) 30° C. for 15 min.
4) To start assay, pre-incubate 10 μL BTK in enzyme buffer (imidazole, glycerol-2-phosphate, BSA) and 10 μL of test compounds for 10 min at RT.
5) Add 30 μL reaction mixture without or with substrate to BTK and compounds.
6) Incubate 50 μL total assay mix for 30 min at 30° C.
7) Transfer 40 μL of assay to 150 μL bead slurry in filter plate to stop reaction.
8) Wash filter plate after 30 min, with following steps • a. 3 ×250 μL NaCl • b. 3×250 μL NaCl containing 1% phosphoric acid • c. 1×250 μL H2O
9) Dry plate for 1 h at 65° C. or overnight at RT
10) Add 50 μL microscint-20 and count ^33P cpm on scintillation counter.
Calculate percent activity from raw data in cpm percent activity=(sample−bkg)/(total activity−bkg)×100

[2] = target: T2, Spleen Tyrosine Kinase (SYK) aa 360-635 (Homo sapiens, UniProt P43405); experiment: Determination of IC50 of Spleen Tyrosine Kinase (SYK) inhibition, 33P kinase assay; assay type: biochemical; conditions: recombinant human SYK360-635, 20 μM ATP; read-out: IC50 (μM) SYK Assay
T2 construct: truncated construct of Spleen Tyrosine Kinase aa 360-635; made in house
Experimental: Determination of IC50 of Spleen Tyrosine Kinase (SYK) Inhibition
The SYK kinase assay is a standard kinase assay adapted to a 96 well plate format. This assay is performed in 96-well format for IC50 determination with 8 samples which represented 10 half log dilutions and a 40 μL reaction volume. The assay measures the incorporation of radiolabeled ^33P γATP into an N-terminally biotinylated peptide substrate, derived from naturally occurring phosphoacceptor consensus sequence (Biotin-11aa DY*E). Phosphorylated products were detected upon termination of reactions with EDTA and the addition of Streptavidin coated beads. • Assay plates: 96-well MultiScreen 0.65 um filter plates (Millipore Cat. No.: MADVNOB10) • Streptavidin coated beads: Streptavidin Sepharose TM, suspension 5.0 mL, in 50 mM EDTA/PBS diluted (1:100), (Amersham, Cat. No.: 17-5113-01) • Compounds: 10 mM in 100% dimethylsulfoxide (DMSO), final conc.: compound 0.003-100 uM in 10% DMSO • Enzyme: SYK RPA purified, truncated construct of Spleen Tyrosine Kinase aa 360-635, stock solution 1 mg/mL, MW: 31.2 KDa, final conc.:0.0005 μM. • Peptide 1: biotinylated peptide is derived from a naturally occurring phosphor-acceptor consensus sequence (Biotin-[…]), special order from QCB, stock solution 20 mM, final conc.: 5.0 μM. • ATP: Adenosine-5′-triphosphate 20 mM, (ROCHE Cat. No.:93202720), final concentration: 20 μM • Buffer: HEPES: 2-Hydroxyethyl piperazine-2-ethanesulfonic acid (Sigma, Cat. No.: H-3375) final concentration: 50 mM HEPES pH7.5 • BSA: Bovine Serum Albumin Fraction V, fatty acid free (Roche Diagnostics GmbH, Cat. No. 9100221) diluted to a final concentration of 0.1% • EDTA: EDTA stock solution 500 mM, (GIBCO, Cat. No.: 15575-038) final concentration: 0.1 mM • DTT: 1,4-Dithiothreitol (Roche Diagnostics GmbH, Cat. No.: 197777), final conc.: 1 mM • MgCl2×6H2O: MERCK, Cat. No.: 105833.1000, final concentration: 10 mM • Assay Dilution Buffer (ADB): 50 mM HEPES, 0.1 mM EGTA, 0.1 mM Na Vanadate, 0.1 mM β-glycerophosphate, 10 mM MgCl2, 1 mM DTT, 0,1% BSA, pH 7.5 • Bead wash buffer: 10 g/L PBS (Phosphate buffered saline) with 2M NaCl+1% phosphoric acid Experimental Method:
In 40 μL volume, 26 μL of ADB diluted, purified recombinant human SYK360-635 [0.5 nM] was mixed with 4 μL of 10× concentrations of the test compounds, [usually 100 μM-0.003 μM] in [10%] DMSO and the mixture was incubated for 10 min at RT.
The kinase reaction was initiated by the addition of 10 μL 4× substrate cocktail containing the DYE peptide substrate [0 or 5 μM], ATP [20 μM] and […] [2 μCi/rxn]. After incubation at 30° C. for 15 min, the reaction was terminated by the transfer of 25 μL of the reaction sample to a 96 well 0.65 um Millipore MADVNOB membrane/plate containing 200 μL 5 mM EDTA and 20% Streptavidine coated beads in PBS.
The unbound radionucleotides were washed under vacuum with 3×250 μL 2M NaCl; 2×250 μL 2M NaCl+1% phosphoric acid; 1×250 μL H2O. After the last wash membrane/plates were transferred to an adaptor plate, heat dried for 15 min at 60° C., and 50 μL scintillation cocktail was added to each well and 4 h later the amount of radioactivity was counted in a top counter.
The IC50 was calculated using a non-linear curve fit with XLfit software (ID Business Solution Ltd., Guilford, Surrey, UK). […] Representative results are in Table 1.

T1 sequence (Q06187 whole entry): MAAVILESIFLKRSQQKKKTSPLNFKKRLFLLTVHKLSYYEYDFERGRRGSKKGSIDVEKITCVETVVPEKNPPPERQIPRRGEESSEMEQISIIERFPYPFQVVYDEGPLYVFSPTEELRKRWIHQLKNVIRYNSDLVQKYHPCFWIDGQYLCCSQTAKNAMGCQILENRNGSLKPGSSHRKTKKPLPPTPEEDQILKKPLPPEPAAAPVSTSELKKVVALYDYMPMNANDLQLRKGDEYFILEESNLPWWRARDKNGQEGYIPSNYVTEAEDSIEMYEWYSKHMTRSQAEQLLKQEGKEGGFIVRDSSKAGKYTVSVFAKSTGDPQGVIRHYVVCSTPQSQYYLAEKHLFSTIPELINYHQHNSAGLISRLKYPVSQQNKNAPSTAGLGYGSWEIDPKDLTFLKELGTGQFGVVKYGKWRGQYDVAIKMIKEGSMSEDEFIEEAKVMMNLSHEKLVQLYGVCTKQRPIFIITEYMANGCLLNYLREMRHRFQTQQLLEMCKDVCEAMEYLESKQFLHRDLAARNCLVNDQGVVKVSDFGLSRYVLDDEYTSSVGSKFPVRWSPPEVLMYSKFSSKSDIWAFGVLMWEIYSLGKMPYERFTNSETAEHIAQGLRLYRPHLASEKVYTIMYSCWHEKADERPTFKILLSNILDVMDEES

Molecule | IC50 [1] | IC50 [2]
4-(5-Methyl-2H-pyrazole-3-ylamino)-phenyl-2H-phthalazin-1-one [Example A-1] | 1.25 µM | –
Cc1cc(Nc2nn(C)c(=O)c3ccccc23)n[nH]1 [Example A-3, 2-methyl-4-(5-methyl-1H-pyrazol-3-yl-amino)-2H-phthalazin-1-one] | 70.5 µM | –
Cc1cc(Nc2nn(CC(C)C)c(=O)c3ccccc23)n[nH]1 [Example A-4, 2-isobutyl-4-(5-methyl-1H-pyrazol-3-ylamino)-2H-phthalazin-1-one] | 11.4 µM | –
Cc1cc(Nc2nn(CC(F)(F)F)c(=O)c3ccccc23)n[nH]1 [Example A-5, 4-(5-methyl-1H-pyrazol-3-ylamino)-2-(2,2,2-trifluoro-ethyl)-2H-phthalazin-1-one] | 8.22 µM | 7.68 µM
Cc1ccc(-n2nc(Nc3cc(C)[nH]n3)c3ccccc3c2=O)cc1 [Example A-6, 4-(5-methyl-1H-pyrazol-3-ylamino)-2-p-tolyl-2H-phthalazin-1-one] | 38.2 µM | –
Cc1cc(Nc2nn(-c3ccc(F)cc3)c(=O)c3ccccc23)n[nH]1 [Example A-7, 2-(4-fluoro-phenyl)-4-(5-methyl-1H-pyrazol-3-ylamino)-2H-phthalazin-1-one] | 6.3 µM | –
Cc1cc(Nc2nn(-c3ccc(C(C)(C)C)cc3)c(=O)c3ccccc23)n[nH]1 [Example A-8, 2-(4-tert-butyl-phenyl)-4-(5-methyl-1H-pyrazol-3-ylamino)-2H-phthalazin-1-one] | 30 µM | 0.552 µM
COc1ccc(-n2nc(Nc3cc(C)[nH]n3)c3ccccc3c2=O)cc1 [Example A-9, 2-(4-methoxy-phenyl)-4-(5-methyl-1H-pyrazol-3-ylamino)-2H-phthalazin-1-one] | 5.87 µM | –
Cc1ccc(-n2nc(Nc3cc[nH]n3)c3ccccc3c2=O)cc1 [Example A-10, 4-(1H-pyrazol-3-yl-amino)-2-p-tolyl-2H-phthalazin-1-one] | 16.6 µM | –
COc1ccc(Cn2nc(Nc3cc(C)[nH]n3)c3ccccc3c2=O)cc1 [Example A-11, 2-(4-methoxy-benzyl)-4-(5-methyl-1H-pyrazol-3-ylamino)-2H-phthalazin-1-one] | 9.79 µM | 49.2 µM
Cc1cc(Nc2nn(Cc3cc(F)ccc3F)c(=O)c3ccccc23)n[nH]1 [Example A-13, 2-(2,5-difluoro-benzyl)-4-(5-methyl-1H-pyrazol-3-yl-amino)-2H-phthalazin-1-one] | 38.6 µM | 22.9 µM
Cc1cc(Nc2nn(Cc3csc(C)n3)c(=O)c3ccccc23)n[nH]1 [Example A-16, 4-(5-methyl-1H-pyrazol-3-ylamino)-2-(2-methyl-thiazol-4-ylmethyl)-2H-phthalazin-1-one] | 25.2 µM | 87.9 µM
Cc1cc(Nc2nn(Cc3cccnc3)c(=O)c3ccccc23)[nH]n1 [Example A-18, 4-(5-methyl-2H-pyrazol-3-ylamino)-2-pyridin-3-ylmethyl-2H-phthalazin-1-one] | – | 6.53 µM

Other lines, results leading:

IC50 [1] | IC50 [2] | Molecule
14.6 µM | > 10 µM | Cc1cc(Nc2nn(Cc3cc(F)cc(F)c3)c(=O)c3ccccc23)n[nH]1 [Example A-21, 2-(3,5-difluoro-benzyl)-4-(5-methyl-1H-pyrazol-3-yl-amino)-2H-phthalazin-1-one]
– | 78.1 µM | Cc1cc(Nc2nn(Cc3ccccn3)c(=O)c3ccccc23)[nH]n1 [Example A-22, 4-(5-methyl-2H-pyrazol-3-ylamino)-2-pyridin-2-ylmethyl-2H-phthalazin-1-one]
50.9 µM | – | Cc1cc(Nc2nn(C(C)C)c(=O)c3ccccc23)n[nH]1 [Example A-23, 2-isopropyl-4-(5-methyl-1H-pyrazol-3-ylamino)-2H-phthalazin-1-one]
1.75 µM | 24.9 µM | Cc1cc(Nc2nn(Cc3cccc(C(=O)O)c3)c(=O)c3ccccc23)n[nH]1 [Example A-24, 3-[4-(5-methyl-1H-pyrazol-3-ylamino)-1-oxo-1H-phthalazin-2-ylmethyl]-benzoic acid]
– | 0.525 µM | Cc1cc(Nc2nn(-c3ccc(C(F)(F)F)cc3)c(=O)c3ccccc23)[nH]n1 [Example A-25, 4-(5-methyl-1H-pyrazol-3-ylamino)-2-(4-trifluoromethyl-phenyl)-2H-phthalazin-1-one]
5.03 µM | 1.19 µM | Cc1cc(Nc2nn(-c3ccc(Cl)cc3)c(=O)c3ccccc23)n[nH]1 [Example B-1, 2-(4-Chloro-phenyl)-4-(5-methyl-1H-pyrazol-3-ylamino)-2H-phthalazin-1-one]
> 100 µM | – | Cc1cc(Nc2nn(Cc3ccccc3)c(=O)c3ccccc23)n[nH]1 [Example E-1, 2-Benzyl-4-(5-methyl-1H-pyrazol-3-ylamino)-2H-phthalazin-1-one]
– | 1.25 µM | COCc1ccc2c(Nc3cc(C)[nH]n3)nn(C(C)C)c(=O)c2c1 [Example K-1, 2-Isopropyl-7-methoxymethyl-4-(5-methyl-1H-pyrazol-3-ylamino)-2H-phthalazin-1-one]
– | 56.9 µM | Cc1cc(Nc2nn(C(C)C)c(=O)c3ccc(CO)cc23)n[nH]1 [Example M-10, 6-Hydroxymethyl-2-isopropyl-4-(5-methyl-1H-pyrazol-3-yl-amino)-2H-phthalazin-1-one]
